The values that follow come from patent publication US20190328869A1, “IMMUNOTHERAPEUTIC PRODUCT AND MDSC MODULATOR COMBINATION THERAPY” (Transgene SA, priority 2016, published 2019).

The subject of experiment [1] is Adenovirus-specific T cells producing IFNγ. The experiment can be described thus: IFNγ-ELISpot, vector-specific T cell response (Ad-specific peptide FAL) in HBV-persistent mice. It counts as in vivo, C57BL/6J mice. Conditions: splenocytes, day 76 post AAV2/8-HBV; sildenafil 20 mg/kg/day D31-59 or D48-76; AdTG18201 2×10^9 vp sc D36, 43, 50. The protocol:
The capacity of splenocytes to produce IFNγ after different in vitro stimulations was measured by an IFNγ-ELISpot assay at day 76 post AAV2/8-HBV injection. Vector-specific T cell responses were assessed using the Ad-specific peptide FAL. Results are shown as the number of spots per 10^6 splenocytes. Each dot represents an individual mouse and thick line represents the mean value for each group (+/−SEM). The horizontal gray line represents the technical cutoff value (50 spots/10^6 cells) above which values are considered as positive T cell responses and which was defined as described in the Material and Methods. For groups with a positive T cell response, incidence of mice per group is indicated on the graph.
(§1) The HBV persistent mice used in the study were described by Dion et al. (2013, J Virol, 87(10):5554-63). […] This allows the analysis of HBV-specific viral parameters (HBsAg, HBeAg, HBcAg and viremia) as well as immunological read-outs (ICS, ELISpot or humoral immune responses). […]
IFNg-producing T cells were quantified by cytokine-specific ELISpot (enzyme linked immunospot) assay as previously described (Himoudi et al., 2002, J. Virol. 76: 12735). The number of spots (corresponding to the IFNg-producing T cells) in negative control wells were subtracted from the number of spots detected in experimental wells containing HBV peptides. […]

The next experiment concerns CT26-MUC1 cells. The experiment in a line: Survival in CT26 colon cancer tumor model. The format is in vivo, BALB/c mice. Conditions: 44 days post tumor implantation; MVATG9931 5×10^7 pfu day 2 and 9; sildenafil 80 mg/kg/day drinking water day 0 to 28; 12 mice per group.
The subject of the next experiment is tumor-recruited MDSCs. The following applies: mouse tumor models; cited from earlier work.
Experiment [2] deals with HBV-Core-specific and HBV-Polymerase-specific T cells producing IFNγ. The experiment can be described thus: IFNγ-ELISpot, HBV-specific T cell responses (Full pool Core, VSA, N13F) in HBV-persistent mice. The following applies: splenocytes, day 76; cutoff 50 spots/10^6 cells; sildenafil 20 mg/kg/day D31-59 or D48-76. The format is in vivo, C57BL/6J mice. The protocol:
The capacity of splenocytes to produce IFNγ after different in vitro stimulations was measured by an IFNγ-ELISpot assay at day 76 post AAV2/8-HBV injection. HBV-specific responses were assessed using the HBV-Core peptides (A, Full pool Core), -polymerase specific peptide VSA (B) or N13F (C). Results are shown as the number of spots per 10^6 splenocytes. Each dot represents an individual mouse and thick line represents mean values for each group (+/−SEM). The horizontal gray line represents the technical cutoff value (50 spots/10^6 cells) above which values are considered as positive T cell responses. For groups with a positive T cell response, incidence of mice per group is indicated on the graph.
The capacity of splenocytes to produce IFNγ after different in vitro stimulations was measured by an IFNγ-ELISpot assay at day 76 post AAV2/8-HBV injection. HBV-specific responses were assessed using the HBV-Core peptides (Full pool Core), -polymerase specific peptide VSA or N13F. Shown are mean values of responder mice (>50 spots/10^6 cells) (mean, SEM). […]
as §1

On to `CCCc1nn(C)c2c(=O)nc(-c3cc(S(=O)(=O)N4CCN(C)CC4)ccc3OCC)[nH]c12` [sildenafil, 1-[[3-(4,7-dihydro-1-methyl-7-oxo-3-propyl-1H-pyrazolo[4,3-d]pyrimidin-5-yl)-4-ethoxyphenyl]sulfonyl]-4-methylpiperazine], for which, in experiment [1], the “IFNg-response to the Ad-specific peptide FAL” value was “negative”. Also, the “mice still alive (survival)” value with CT26-MUC1 cells came out at 20%. The “intratumoral T cell infiltration and activation” value with tumor-recruited MDSCs was “enhance intratumoral T cell infiltration and activation”. The “HBV-specific IFNg producing T responses (Full pool core, VSA, N13F)” value in experiment [2] is given as “did not show any IFNg producing T responses”.
